Source: patent US20050226135A1, “Write-once information recording medium” (KABUSHIKI KAISHA TOSHIBA, priority 2004, published 2005)

Test: solubility in an organic solvent at 20° C. by an ordinary method
Assay type: physicochemical
Conditions: organic solvents of amide, alcohol, ketone, nitrile and halogen systems (chloroform, N,N-dimethyl formamide, methanol, 2,2,3,3-tetrafluoro-1-propanol, ethyl methyl ketone, acetonitrile)

COc1ccc(OC)c(/N=N/C(=N\[N]([Ni][N](/N=C(\N=N\c2cc(OC)ccc2OC)c2ccccn2)c2ccc([N+](=O)[O-])cn2)c2ccc([N+](=O)[O-])cn2)c2ccccn2)c1 [chemical formula 3]
solubility in an organic solvent: practically applicable solubility
